Test results published in publication PMC7221086, “Trefoil factors share a lectin activity that defines their role in mucus” (Nature Communications, 2020).
Where no end group is shown, it is not given here.

Legend:
[1] = target: T1, mTFF3 (human TFF3, monomeric) (Homo sapiens, UniProt Q07654, C78S); assay: Isothermal titration calorimetry of glycans against mTFF3; type: binding; conditions: ITC, pH 7.4, 25 °C; TFF3
T1 construct: with an N-terminal PelB signal peptide, no interchain Cys, and a C-terminal His6-tag; PelB signal peptide (N, cleaved yes); His6 (C, cleaved yes); made in house; host or cells: E. coli T7 Express, periplasmic extraction
T1 sequence (Q07654 22-80 C78S): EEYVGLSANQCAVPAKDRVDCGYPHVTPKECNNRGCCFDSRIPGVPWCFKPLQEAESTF
Protocol: (§1) All TFF and ligand stock solutions were prepared in the same buffer (50 mM HEPES, 50 mM NaCl, pH 7.4) and filtered (0.22 µm) just prior to titration. All control and non-binding ligand experiments were performed as 12 × 3.18 µl injections. For experiments with GlcNAc-α-1,4-Gal (Carbosynth), 25 × 1.58 µl injections were used. All runs were performed at 25 °C in a MicroCal iTC200 (Malvern).
(§2) Supplementary Table 2: Parameters used for ITC and thermodynamic terms determined for
(§3) GlcNAc-α-1,4-Gal binding to the TFFs. Data are presented as mean values ±SD for three
(§4) Protein GlcNAc-α- T n Kd ΔH ΔS -TΔS ΔG
(§5) (30 µM) 1,4-Gal (µM) (℃) (µM) (kcal · mol-1) (cal · mol-1 · K-1) (kcal · mol-1) (kcal · mol-1)

[2] = target: T2, mTFF1 (human TFF1, monomeric) (Homo sapiens, UniProt P04155); assay: Isothermal titration calorimetry of glycans against mTFF1; type: binding; conditions: ITC, pH 7.4, 25 °C; TFF1
T2 construct: PelB signal peptide (N, cleaved yes); His6 (C, cleaved yes); made in house; host or cells: E. coli T7 Express, periplasmic extraction
T2 sequence (P04155 with tags, fused parts or gaps): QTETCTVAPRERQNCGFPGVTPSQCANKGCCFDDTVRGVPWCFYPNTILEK
Protocol: as §1, §2, §3, §4, §5

TFF2 (human TFF2) = target: T3, TFF2 (human TFF2) (Homo sapiens, UniProt Q03403, N38Q); assay: Isothermal titration calorimetry of glycans against TFF2; type: binding; conditions: ITC, pH 7.4, 25 °C; TFF2
T3 construct: with an N-terminal gp67 signal peptide and a C-terminal His10-tag; gp67 signal peptide (N, cleaved yes); made in house; host or cells: Sf21 insect cells (baculovirus), secreted
T3 sequence (Q03403 24-129 N38Q): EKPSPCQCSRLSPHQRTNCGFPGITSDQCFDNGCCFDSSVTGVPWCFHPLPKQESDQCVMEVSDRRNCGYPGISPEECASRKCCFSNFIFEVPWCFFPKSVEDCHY
Protocol: as §1, §2, §3, §4, §5

[3] = tested on: pMucinred+GH89 (pMucinred treated with CpGH89); assay: TFF-mucin ELISA on pMucinred+GH89; type: binding, porcine; conditions: immobilised GH89-treated mucin, Strep-HRP detection
Protocol: (§6) A 50 mg ml^−1 stock of pMucin was prepared by resuspending porcine gastric mucin type III (Sigma) in PBS + 50 mM EDTA + 0.02% NaN3. This pMucin (1 ml) was dialysed (100 kDa NMWL) against 4 M guanidium hydrochloride (2 × 2.0 l) over 48 h at 4 °C. Precipitate was removed by centrifugation (8000×g, 20 min, 4 °C) and the soluble supernatant dialysed (100 kDa NMWL) against PBS (2 × 2.0 l) over 48 h at 4 °C. Half of this sample was treated with 50 µg ml^−1 CpGH89[29] at 30°C for 16 h. Both mucin samples were reduced with 10 mM DTT (30 min, 50 °C) then alkylated by the addition of 30 mM iodoacetamide (30 min, 50 °C). These samples were dialysed (100 kDa NMWL) against PBS (2 × 2.0 l) over 48 h at 4 °C. The concentration of all three mucin stock solutions were standardised to A280 = 1.5 using PBS. These samples were aliquoted, flash frozen in liquid N2 and stored at −80 °C.
(§7) A solution of pMucin, pMucinred or pMucinred+GH89 (100 µl, 1 µg ml^−1) in 100 mM bicarbonate buffer pH 9.4, was added to each well of a 96-well plate (flat-bottom Nunc MaxiSorp, ThermoFisher) and the plate gently nutated for 2 h at 25 °C. The wells were rinsed four times with 200 µl PBS-T (50 mM NaPi pH 7.4, 150 mM NaCl, 0.2% Tween-20) then blocked for 1 h at 25 °C with blocking buffer (50 mM NaPi pH 7.4, 150 mM NaCl, 5% w/v BSA). The wells were rinsed four times with 200 µl PBS-T then incubated with 100 µl blocking buffer containing TFF (various concentrations) and 1:1000 Strep-HRP (ThermoFisher) for 1 h at 25 °C. The wells were rinsed four times with 200 µl PBS-T then developed by adding 100 µl of TMB-Turbo (ThermoFisher) and incubated for 30 min at 25 °C. The reaction was quenched by the addition of 100 µl of 2 M H2SO4. Absorbance at 450 nm was read within 20 min using an EnVision 2105 Multimode Plate Reader (PerkinElmer). Data was analysed using Prism 8 (GraphPad).

[4] = target: reduced and alkylated pMucin; assay: ELISA; conditions: read off a plot
[5] = tested on: pMucin (porcine gastric mucin); assay: TFF-mucin ELISA on pMucin; type: binding; conditions: immobilised pMucin, Strep-HRP detection
Protocol: as §6, §7

[6] = tested on: pMucinred (reduced and alkylated pMucin); assay: TFF-mucin ELISA on pMucinred; type: binding, porcine; conditions: immobilised pMucinred, Strep-HRP detection
Protocol: as §6, §7

pMucin = assay: Mucin agglutination assay; type: biochemical, porcine; conditions: pMucin 0.02% w/v, 405 nm, 25 °C
Protocol: Mucin agglutination assays were performed at 25 °C on an EnVision 2105 Multimode Plate Reader (PerkinElmer) to monitor transmission at 405 nm over time. The assay was performed in a 96-well plate (Corning, polystyrene flat bottom clear) with 50 µl per well. pMucin concentration was kept consistent at 0.02% w/v and TFF concentration varied (0, 1, 2, 4, 8, 16 or 32 µM). The resulting curves were normalised to percent decrease in signal, averaged over three replicates and plotted using Prism 8 (GraphPad).

[7] = target: commercially-available porcine gastric mucin (porcine)

CC(=O)N[C@H]1C(O)O[C@H](CO)[C@@H](O)[C@@H]1O (stereo partly drawn) [D-GlcNAc]
affinity by ITC [1]: no detectable affinity | affinity by ITC [2]: no detectable affinity | affinity by ITC (TFF2 (human TFF2)): no detectable affinity

dTFF1bio: biotinylated dimeric TFF1 construct, wild type ({Avi‑tag(biotin)}-EAQTETCTVAPRERQNCGFPGVTPSQCANKGCCFDDTVRGVPWCFYPNTIDVPPEEECEF; also: homodimer via interchain disulfide, Cys not given here)
binding to pMucinred+GH89 by ELISA [3]: does not bind

biotinylated dimeric TFF1 (from UniProt P04155) N14A
response (Abs. @ 450 nm) ([4]; 25 nM TFF, parent: est. 1.3): 0.68 | response (Abs. @ 450 nm) ([4]; 1000 nM TFF, parent: est. 1.3): 1

mTFF3bio: site-selectively biotinylated monomeric TFF3 ({Avi‑tag(biotin)}-EEYVGLSANQCAVPAKDRVDCGYPHVTPKECNNRGCCFDSRIPGVPWCFKPLQEAECTF; also: one free cysteine, interchain disulfide not formed)
binding to pMucin by ELISA [5]: robust binding | binding / affinity to pMucinred by ELISA [6]: robust binding | binding to pMucinred+GH89 by ELISA [3]: no significant binding

biotinylated dimeric TFF3 (from UniProt Q07654) W47A
response (Abs. @ 450 nm) ([4]; 25 nM TFF, parent: est. 1.2): 0.035 | response (Abs. @ 450 nm) ([4]; 1000 nM TFF, parent: est. 1.2): 0.04

biotinylated dimeric TFF3 (from UniProt Q07654) D20A
response (Abs. @ 450 nm) ([4]; 25 nM TFF, parent: est. 1.2): 0.04 | response (Abs. @ 450 nm) ([4]; 1000 nM TFF, parent: est. 1.2): 0.095

Dimeric TFF3: dimeric wild-type TFF3 construct used in the pMucin agglutination assay ({Avi‑tag(biotin)}-EEYVGLSANQCAVPAKDRVDCGYPHVTPKECNNRGCCFDSRIPGVPWCFKPLQEAECTF; also: homodimer via interchain disulfide, Cys not given here)
lowest concentration inducing dose-dependent increase in light scattering over time (pMucin): 4 µM

OC[C@H]1O[C@H](O[C@H]2[C@H](O)[C@@H](O)[C@H](O)O[C@@H]2CO)[C@H](O)[C@@H](O)[C@@H]1O [maltose]
affinity by ITC [1]: failed to show any affinity | affinity by ITC [2]: failed to show any affinity | affinity by ITC (TFF2 (human TFF2)): failed to show any affinity

dTFF3bio-W47A: biotinylated dimeric TFF3 with W47A mutation ({Avi‑tag(biotin)}-EEYVGLSANQCAVPAKDRVDCGYPHVTPKECNNRGCCFDSRIPGVPACFKPLQEAECTF; also: homodimer via interchain disulfide, Cys not given here)
binding / affinity to pMucinred by ELISA [6]: completely inactive

mTFF1bio: site-selectively biotinylated monomeric TFF1 ({Avi‑tag(biotin)}-EAQTETCTVAPRERQNCGFPGVTPSQCANKGCCFDDTVRGVPWCFYPNTIDVPPEEECEF; also: one free cysteine, interchain disulfide not formed)
binding to pMucin by ELISA [5]: robust binding | binding / affinity to pMucinred by ELISA [6]: robust binding | binding to pMucinred+GH89 by ELISA [3]: no significant binding

biotinylated dimeric TFF1 (from UniProt P04155) W41A
response (Abs. @ 450 nm) ([4]; 25 nM TFF, parent: est. 1.3): 0.06 | response (Abs. @ 450 nm) ([4]; 1000 nM TFF, parent: est. 1.3): 0.045

Dimeric TFF1: dimeric wild-type TFF1 construct used in the pMucin agglutination assay ({Avi‑tag(biotin)}-EAQTETCTVAPRERQNCGFPGVTPSQCANKGCCFDDTVRGVPWCFYPNTIDVPPEEECEF; also: homodimer via interchain disulfide, Cys not given here)
lowest concentration inducing dose-dependent increase in light scattering over time (pMucin): 4 µM

CC(=O)N[C@H]1[C@@H](OCc2ccccc2)O[C@H](CO)[C@@H](O)[C@@H]1O [benzyl α-D-GlcNAc]
affinity by ITC [1]: no detectable affinity | affinity by ITC [2]: no detectable affinity | affinity by ITC (TFF2 (human TFF2)): no detectable affinity

OC[C@H]1O[C@H](O[C@@H]2[C@H](O)[C@@H](O)C(O)O[C@@H]2CO)[C@H](O)[C@@H](O)[C@H]1O (stereo partly drawn) [Gal-α-1,4-Gal]
affinity by ITC [1]: failed to show any affinity | affinity by ITC [2]: failed to show any affinity | affinity by ITC (TFF2 (human TFF2)): failed to show any affinity

CC(=O)N[C@H]1[C@@H](Oc2ccc([N+](=O)[O-])cc2)O[C@H](CO)[C@@H](O)[C@@H]1O [4-nitrophenyl α-D-GlcNAc]
affinity by ITC [1]: no detectable affinity | affinity by ITC [2]: no detectable affinity | affinity by ITC (TFF2 (human TFF2)): no detectable affinity

dTFF3bio-D20A: biotinylated dimeric TFF3 with D20A mutation ({Avi‑tag(biotin)}-EEYVGLSANQCAVPAKDRVACGYPHVTPKECNNRGCCFDSRIPGVPWCFKPLQEAECTF; also: homodimer via interchain disulfide, Cys not given here)
binding / affinity to pMucinred by ELISA [6]: barely any detectable affinity

B1: TFF2bio: biotinylated TFF2, positive control (protein)
chain: EKPSPCQCSRLSPHNRTNCGFPGITSDQCFDNGCCFDSSVTGVPWCFHPLPKQESDQCVMEVSDRRNCGYPGISPEECASRKCCFSNFIFEVPWCFFPKSVEDCHY
modifications: biotin, non-specific (EZ-Link NHS-PEG4-biotin); left off: His10, C-terminal, state not stated
notes: biotinylated TFF2, positive control
binding to pMucin by ELISA [5]: robust binding | binding / affinity to pMucinred by ELISA [6]: robust binding | binding to pMucinred+GH89 by ELISA [3]: no significant binding

B2: biotinylated dimeric TFF3 (natural protein)
chain: EEYVGLSANQCAVPAKDRVDCGYPHVTPKECNNRGCCFDSRIPGVPWCFKPLQEAECTF
modifications: also: dimer via interchain disulfide, biotin on Avi-tag (BirA), tag not in chain
EC50 of the glycoside hydrolase CpGH89 (0-512 nM, 20 h, 30 °C) for liberating bound dTFF3bio from immobilised pMucin, read by ELISA [7]: 0.4 nM

B3: biotinylated dimeric TFF1 (natural protein)
chain: EAQTETCTVAPRERQNCGFPGVTPSQCANKGCCFDDTVRGVPWCFYPNTIDVPPEEECEF
modifications: also: dimer via interchain disulfide, biotin on Avi-tag (BirA), tag not in chain
EC50 of the glycoside hydrolase CpGH89 (0-512 nM, 20 h, 30 °C) for liberating bound dTFF1bio from immobilised pMucin, read by ELISA [7]: 0.8 nM
